Test results as given in patent US6194451A, “Matrix metalloproteinase inhibitors” (Pharmacia & Upjohn S.p.A., priority 1997, dated 2001).

Experiments:
[1] = target: T1, MMP-1 (human interstitial collagenase) (Homo sapiens, UniProt P03956); assay: Biochemical Assay (Protocol A): inhibition of human collagenase, fluorimetric peptide substrate; settings: MMP-1, pH 7.4, 37° C.
T1 construct: truncated recombinant enzyme encompassing residues 101-269
T1 sequence (P03956 101-269): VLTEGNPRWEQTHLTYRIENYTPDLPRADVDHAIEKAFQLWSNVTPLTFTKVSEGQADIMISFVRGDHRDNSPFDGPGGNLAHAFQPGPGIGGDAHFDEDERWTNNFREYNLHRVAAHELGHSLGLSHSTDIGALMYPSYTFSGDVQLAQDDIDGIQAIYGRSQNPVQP
Text: As mentioned above, although low molecular weight MMP inhibitors, including hydroxamates of general formula (A), are already known, there is a strong need for better and diversified molecules for their use in medicine, that is in particular in the control or prevention of degenerative joint diseases such as rheumatoid arthritis and osteoarthritis, or in the management of multiple sclerosis, or in the treatment of invasive tumors. […] For example, the following protocol was used to assess the biochemical activity of compounds of formula (I) against MMP-1, MMP-2, and MMP-3 (respectively, human interstitial collagenase, gelatinase A, and stromelysin-1).
Human gelatinase-A (MMP-2) was obtained as pro-enzyme (72 kDa) and was activated with 1 mM 4-aminophenylmercuric acetate for 30 min at 37° C. immediately prior to use. Human stromelysin-1 (MMP-3) was obtained as a recombinant pro-enzyme isolated either from E. coli or from baculovirus infected Sf9 insect cells and activated either by heat (1 h, 55° C.) or by 5 mg/l trypsin (30 min, 37° C.) before addition of soybean trypsin inhibitor, finally removed by centrifugation.
All enzyme assays to determine values of the enzyme-inhibitor dissociation constants were performed using the peptide substrate (7-methoxycoumarin-4-yl)Acetyl-Pro-Leu-Gly-Leu-(3-[2,4-dinitrophenyl]-L-2,3-diaminopropionyl)-Ala-Arg-NH2 (Mca-Pro-Leu-Gly-Leu-Dpa-Ala-Arg--NH2) (C. G. Knight et al., FEBS Lett. 296:263-266, 1992). The enzymes cleave at the Gly-Leu bond removing the internally quenching Dpa group. The release of the highly fluorescent peptide Mca-Pro-Leu was followed fluorimetrically setting the excitation wavelength at 326 nm (bandwidth 5 nm) and the emission at 392 nm (bandwidth 20 nm).
Continuous fluorescence assay was carried out using a Perkin Elmer LS-50 Fluorescence Spectrophotometer fitted with a thermostatted four position stirring cell changer. Inhibitors were dissolved in the assay buffer ([…] Tris/HCl pH 7.4 containing 0.15 M NaCl, 10 mM CaCl2, 0.01 mM ZnCl2 and 0.05% Brij 35) thermostatted at 37° C. The reaction was started by the addition of substrate ([…]), followed by the addition of the enzyme (e.g. 1.0 nM collagenase, 0.04 nM gelatinase, or 3.0 nM stromelysin) and the increase in fluorescence was monitored over 30 min. The run was repeated at different concentrations of inhibitors in the range 0.1-10000 nM and data at inhibitor concentration in the region if their enzyme-inhibitor dissociation constants were used for calculation.
Substrate consumption was within 5% of the initial concentration and data outside this range were discarded. The Michaelis constants (Km) for the enzyme-substrate complexes is […] or greater (C. G. Knight et al., reference above), so that the factor (1+S/Km) can be approximated to unity without appreciable error.

[2] = Aqueous solubility; format: physicochemical; settings: water, pH 7.0, 25° C.
Protocol: Further, several compounds of formula (I), in particular when R2 is hydroxy, and when R1 is hydroxymethyl, have enhanced water solubility as compared to the vast majority of MMP inhibitors of the prior art. An aqueous solubility threshold, which may vary widely but can be roughly set in the range of 1-10 mg/mL, makes systemic administration easy, and more than often is essential to good oral bioavailability.

[3] = Pharmacokinetic Assay (Protocol C): plasma levels after i.v. and oral administration to rats; format: in vivo, rat (male Sprague-Dawley); settings: 15 mg/kg
Protocol: Male rats (Sprague-Dawley; body weight about 250-300 g) were acclimatized for about one week before the start of the study. […] Before treatment, rats were overnight fasted. For each compound to be assessed, three rats were treated intravenously (injection in the tail vein as a bolus) with a single dose of 15 mg/kg (as free base or free acid if needed) body weight. Other three rats were treated orally (single bolus dose by gastric gavage) with 15 mg/kg of the same compound. In same cases, according to the detection limit of each particular compound, and its availability in stock, these standard doses were modified as needed.
Blood samples were collected into syringes especially prepared for use with the cannulated animals via the SCV cannula. Under standard conditions, blood samples (0.2 mL) were transferred into heparinized tubes at the following times: 0 (pre-dose), 2, 4, 8, 16, 30, 45, 60, 90 min, 2, 4, 6, 8 and 24 h after iv administration; 0 (pre-dose), 5, 10, 30, 45, 60, 90 min, 2, 4, 6, 8, and 24 h after oral administration. Plasma was obtained immediately by centrifugation (about 10,000 rpm for 3 min) and stored at -80° C. till analysis. Plasma samples were assayed for parent drug concentrations using an appropriate analytical method. Under standard conditions, liquid chromatography--tandem mass spectrometry (LC/MS-MS) was used.
Non-compartmental pharmacokinetic calculations were performed with the aid of Pharm-NCA package (SIMED, France). Maximum plasma concentration, Cmax, and the corresponding time, tmax, were read as the coordinates of the highest raw-data point for individual plasma profiles. Terminal phase was evaluated by graphic judgement by eye; terminal rate constant, was calculated as the slope of the terminal linear portion of natural log-transformed plasma concentrations vs. time curve, obtained using linear regression. Terminal half-life, t1/2,z, was calculated as ln(2)/lz. The area under the plasma concentration-time curve was estimated by the linear trapezoidal rule up to the last measured concentration (AUC(0-tz)) and extrapolated to infinity assuming monoexponential decay, using the formula AUC=AUC(0-tz)+C(tz)/lz, where C(tz) is the measured concentration of the last point with detectable concentration. Following iv dosing, systemic clearance was obtained using the formula Cl=Dose/AUC. According to Protocol C, the pharmacokinetic in rats of some representative compounds within the present invention was evaluated. Significant pharmacokinetic data obtained in rats at a 15 mg/kg dose were as follows: […]

Ki [1]: 2.3 nM | solubility [2]: > 15 mg/mL | AUC iv ([3]; iv): 1.53 mg·min/mL | half-life ([3]; rat, plasma, terminal half-life, read-out: t1/2,z (converted)): 5.4 h | clearance ([3]; rat, plasma, iv): 9.89 mL/min/kg | AUC ([3]; rat, plasma, oral): 1100 ng·h/mL
SMILES: CNC(=O)[C@@H](NC(=O)[C@H](CC(C)C)[C@](O)(CO)C(=O)NO)C(C)(C)C [Example 3]
plasma clearance compared with literature hydroxamic acid MMP inhibitors ([3]; to our best knowledge): inferior to that reported for any hydroxamic acid MMP inhibitor disclosed in the literature
